Test results from publication PMC9728198, “Characterization of Two Self-Sufficient Monooxygenases, CYP102A15 and CYP102A170, as Long-Chain Fatty Acid Hydroxylases” (Journal of Microbiology and Biotechnology, 2020).
“And” between values parts separate entries of the source, which are not always exact repeats. Equal values may be shown once. Read-outs that look alike come from different tables or passages of the source.

What was measured:
[1] = molecular target: T1, CYP102A15 (Bacillus sp. (in: firmicutes), UniProt A0A2S1UG59); assay: Spectral substrate binding titration (low-spin to high-spin Soret shift)
Experimental: (§1) The binding affinity was evaluated by spectrometrically analyzing the enzyme binding of each substrate.
(§2) At the beginning, substrates were selected as fatty acids with different chain lengths and the unsaturation extent was tested for enzyme binding capacity. Substrate binding was observed by alternating from low-spin heme iron with a Soret band maximum at 419 nm in the UV-visible spectrum to high-spin heme iron with a Soret band maximum at 389 nm (Figs. 4, S3, and S4).

[2] = molecular target: T2, CYP102A170 (Paenibacillus sp., UniProt A0A2U8SZJ5); assay: as above
Experimental: as §1, §2

[3] = system: CCCCCCCCCCCCCC(=O)O; assay: purified protein, by the assay type
Experimental: (§3) The NADPH consumption assay was performed at 340 nm. […] The total volume of the reaction was 250 μl. The obtained data were analyzed using GraphPad Prism software, and experiments were replicated at least three times.
(§4) Saturated fatty acids, unsaturated fatty acids and other cyclic compounds were the three main types of substrates used to determine the NADPH oxidation rate. […] The coupling efficiencies, product formation rates (PFR), and Michaelis–Menten constants (Km) of CYP102A15 and CYP102A170 were also investigated.

[4] = molecular target: T2, CYP102A170; assay: NADPH consumption assay and kinetic parameters; settings: for Km: read-out: Km (Michaelis–Menten constant)
Experimental: as §3, §4

[5] = molecular target: T1, CYP102A15; assay: NADPH consumption assay and kinetic parameters; settings: for CE (coupling efficiency) / PFR (product formation rate) / Km: CYP102A15; for Km: read-out: Km (Michaelis–Menten constant)
Experimental: as §3, §4

[6] = molecular target: T2, CYP102A170
Experimental: as §3, §4

[7] = read-out: Kd (dissociation constant), CYP102A15, single-binding model for spectral change ΔA (A389–A419), 1 μM of protein
[8] = read-out: Kd (dissociation constant), CYP102A170, single-binding model for spectral change ΔA (A390–A420), 1 μM of protein

T2 sequence (A0A2U8SZJ5 1-1057 limits assumed): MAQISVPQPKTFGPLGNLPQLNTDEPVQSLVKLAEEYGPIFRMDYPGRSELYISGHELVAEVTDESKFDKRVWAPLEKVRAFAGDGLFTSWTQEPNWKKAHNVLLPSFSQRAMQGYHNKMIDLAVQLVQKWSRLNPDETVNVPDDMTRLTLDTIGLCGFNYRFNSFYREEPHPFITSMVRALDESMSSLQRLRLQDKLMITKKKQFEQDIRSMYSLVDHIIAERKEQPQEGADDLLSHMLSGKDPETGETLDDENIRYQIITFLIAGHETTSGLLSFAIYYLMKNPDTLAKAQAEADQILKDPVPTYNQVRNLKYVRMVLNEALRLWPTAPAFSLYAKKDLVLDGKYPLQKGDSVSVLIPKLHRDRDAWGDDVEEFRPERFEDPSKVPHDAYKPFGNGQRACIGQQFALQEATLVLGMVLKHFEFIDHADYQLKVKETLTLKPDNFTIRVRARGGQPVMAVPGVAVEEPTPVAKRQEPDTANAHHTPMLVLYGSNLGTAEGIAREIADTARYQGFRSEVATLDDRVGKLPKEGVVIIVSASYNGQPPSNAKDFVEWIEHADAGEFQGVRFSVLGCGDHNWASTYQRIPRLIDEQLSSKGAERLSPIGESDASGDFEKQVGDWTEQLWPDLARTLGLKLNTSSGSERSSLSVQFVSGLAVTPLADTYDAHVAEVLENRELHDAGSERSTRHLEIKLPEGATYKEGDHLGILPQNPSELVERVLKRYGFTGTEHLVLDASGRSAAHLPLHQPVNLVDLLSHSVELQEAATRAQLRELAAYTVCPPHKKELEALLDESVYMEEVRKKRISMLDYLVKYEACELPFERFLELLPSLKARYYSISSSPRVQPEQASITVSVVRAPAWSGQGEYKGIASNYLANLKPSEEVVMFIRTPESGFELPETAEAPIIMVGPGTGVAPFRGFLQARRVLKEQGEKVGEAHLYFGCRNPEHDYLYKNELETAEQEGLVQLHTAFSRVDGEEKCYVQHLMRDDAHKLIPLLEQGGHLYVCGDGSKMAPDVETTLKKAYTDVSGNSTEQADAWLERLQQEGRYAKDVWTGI
T1 sequence (A0A2S1UG59 1-1047): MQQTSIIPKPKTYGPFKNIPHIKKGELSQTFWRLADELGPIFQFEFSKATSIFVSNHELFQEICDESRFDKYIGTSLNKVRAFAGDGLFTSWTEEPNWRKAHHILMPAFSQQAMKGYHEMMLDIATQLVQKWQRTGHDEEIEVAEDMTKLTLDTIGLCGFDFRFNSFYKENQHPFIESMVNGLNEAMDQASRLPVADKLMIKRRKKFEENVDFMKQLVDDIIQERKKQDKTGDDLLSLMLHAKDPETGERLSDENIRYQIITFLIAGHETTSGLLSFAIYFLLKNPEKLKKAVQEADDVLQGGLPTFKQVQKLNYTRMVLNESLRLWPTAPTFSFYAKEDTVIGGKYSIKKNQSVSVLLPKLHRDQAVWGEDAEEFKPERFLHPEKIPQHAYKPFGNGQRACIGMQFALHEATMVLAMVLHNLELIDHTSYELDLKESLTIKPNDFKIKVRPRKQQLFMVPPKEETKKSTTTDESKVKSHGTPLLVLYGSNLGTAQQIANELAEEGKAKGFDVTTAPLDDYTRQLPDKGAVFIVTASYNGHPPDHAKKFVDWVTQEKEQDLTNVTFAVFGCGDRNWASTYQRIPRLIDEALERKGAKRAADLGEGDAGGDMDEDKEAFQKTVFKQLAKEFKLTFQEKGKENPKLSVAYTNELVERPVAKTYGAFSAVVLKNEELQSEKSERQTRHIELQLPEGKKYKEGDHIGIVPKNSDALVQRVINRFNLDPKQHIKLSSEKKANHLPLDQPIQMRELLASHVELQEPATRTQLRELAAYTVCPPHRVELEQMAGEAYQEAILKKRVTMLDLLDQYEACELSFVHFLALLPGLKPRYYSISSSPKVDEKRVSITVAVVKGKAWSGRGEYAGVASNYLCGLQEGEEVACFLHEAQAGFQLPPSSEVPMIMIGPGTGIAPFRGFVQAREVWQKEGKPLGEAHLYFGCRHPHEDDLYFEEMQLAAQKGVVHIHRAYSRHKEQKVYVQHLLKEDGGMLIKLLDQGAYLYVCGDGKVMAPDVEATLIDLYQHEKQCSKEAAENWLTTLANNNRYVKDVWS

Molecule | Kd [1] [µM] | Kd [2] [µM] | CE (coupling efficiency) [5] [%] | PFR (product formation rate) [5] [nmol/ nmol-P450/min] | other results
CC/C=C\C/C=C\C/C=C\C/C=C\C/C=C\CCCC(=O)O [Eicosapentaenoic acid] | 18.8 ± 3.8 | 1.3 ± 0.08 | – | – | –
CCCCCCCCCCCCCCCCCC(=O)O [Stearic acid] | – | 3.37 ± 0.2 | – | – | –
CCCCCCCCCCCCCCCC(=O)O [Palmitic acid] | 11 ± 1.3 | 5.01 ± 0.23 | – | – | –
CYP102A15 (Bacillus sp. (in: firmicutes)) | – | – | – | – | Km ([3]; other: CYP102A15): 386.10 ± 39.20 µM
CCCCCCCCCCCCCCCCC(=O)O [Margaric acid] | – | – | – | – | Kd [1, 7]: 17.9 ± 1.21 µM; Kd [2, 8]: 2.83 ± 0.17 µM; NADPH consumption rate ([4]; 250 μM NADPH, 200 μM fatty acid, 0.5–1 μM enzyme, 340 nm): 8.2 nmol/nmol-CYP/min
CCCCC/C=C\C/C=C\CCCCCCCC(=O)O [Linoleic acid] | 13.9 ± 1.5 | 1.36 ± 0.23 | 68 | 2.70 ± 0.30 | Km [5]: 15.3 ± 4.7 µM
CCCCC/C=C\C/C=C\C/C=C\C/C=C\CCCC(=O)O [Arachidonic acid] | 29.8 ± 1.8 | – | – | – | –
CCCCCCCC/C=C\CCCCCCCC(=O)O [Oleic acid] | 25.7 ± 2.8 | 2.23 ± 0.09 | 85 | 23.10 ± 5.30 | Km [5]: 39.1 ± 6.9 µM; CE (coupling efficiency) [6]: 51%; PFR (product formation rate) [4]: 41.50 ± 1.30 nmol/ nmol-P450/min; Km [4]: 430 ± 98 µM
CYP102A170 (Paenibacillus sp.) | – | – | – | – | Km ([3]; other: CYP102A170): 17.4 µM and 17.43 ± 1.80 µM
CCOc1ccc2ccc(=O)oc2c1 [7-ethoxycoumarin] | – | – | – | – | NADPH consumption with cyclic compounds (in words) ([5]; data not shown, sentence does not name the enzyme, b46 names CYP102A15): consumed the NADPH
CCCCCCCCCCCCCC(=O)O [Myristic acid] | 14.9 ± 0.68 | 9.89 ± 0.39 | 80 | 35.91 ± 1.20 | CE (coupling efficiency) [4]: 67%; PFR (product formation rate) [4]: 37.52 ± 1.90 nmol/ nmol-P450/min
CCCCCCCCCCCC(=O)O [Lauric acid] | – | – | 90 | 7.00 ± 0.10 | Km [5]: 21.7 ± 3.6 µM; Kd [1, 7]: 7.78 ± 0.7 µM; CE (coupling efficiency) [6]: 72%; Kd [2, 8]: 6.46 ± 0.3 µM; PFR (product formation rate) [4]: 31.68 ± 0.70 nmol/ nmol-P450/min; Km [4]: 13.4 ± 1.3 µM
